Measurements reported in publication PMC9154761, “Development of Praziquantel sulphonamide derivatives as antischistosomal drugs” (Journal of Enzyme Inhibition and Medicinal Chemistry, 2022).

Key:
hCA I = biological target: T1, hCA I (Homo sapiens, UniProt P00915); test: stopped flow CO2 hydrase assay, hCA I; type: biochemical; settings: mean from three different assays
T1 construct: made in house
Method: (§1) An Applied Photophysics stopped-flow instrument was used to assay the CA catalysed CO2 hydration activity. […] The CO2 concentrations ranged from 1.7 to 17 mM for the determination of the kinetic parameters and inhibition constants. […] For each inhibitor, at least six traces of the initial 5–10% of the reaction were used to determine the initial velocity. The uncatalyzed rates were determined in the same manner and subtracted from the total observed rates. Stock solutions of the inhibitor (0.1 mM) were prepared in distilled–deionized water and dilutions up to 0.01 nM were done thereafter with the assay buffer. Inhibitor and enzyme solutions were preincubated together for 15 min at room temperature prior to the assay, to allow for the formation of the E–I complex. The inhibition constants were obtained by non-linear least-squares methods using PRISM 3 and the Cheng-Prusoff equation as reported earlier and represent the mean from at least three different determinations. All CA isoforms were recombinant proteins obtained in house, as reported earlier[14]^,[26–29].

hCA II = biological target: T2, hCA II (Homo sapiens, UniProt P00918); test: stopped flow CO2 hydrase assay, hCA II; type: biochemical; settings: mean from three different assays, read-out: Ki hCAII
T2 construct: made in house
Method: as §1

hCA IV = biological target: T3, hCA IV (Homo sapiens, UniProt P22748); test: stopped flow CO2 hydrase assay, hCA IV; type: biochemical; settings: mean from three different assays
T3 construct: made in house
Method: as §1

hCA IX = biological target: T4, hCA IX (Homo sapiens, UniProt Q16790); test: stopped flow CO2 hydrase assay, hCA IX; type: biochemical; settings: mean from three different assays
T4 construct: made in house
Method: as §1

LdCA = LdCA (Leishmania donovani, UniProt A0A3S5H5R2); test: biochemical; settings: stopped flow CO2 hydrase assay; mean from three different assays; read-out: Ki LdCA
Method: (§2) An Applied Photophysics stopped-flow instrument was used to assay the CA catalysed CO2 hydration activity. […] The uncatalyzed rates were determined in the same manner and subtracted from the total observed rates. Stock solutions of the inhibitor (0.1 mM) were prepared in distilled–deionized water and dilutions up to 0.01 nM were done thereafter with the assay buffer. Inhibitor and enzyme solutions were preincubated together for 15 min at room temperature prior to the assay, to allow for the formation of the E–I complex. The inhibition constants were obtained by non-linear least-squares methods using PRISM 3 and the Cheng-Prusoff equation as reported earlier and represent the mean from at least three different determinations. All CA isoforms were recombinant proteins obtained in house, as reported earlier[14]^,[26–29].

SmCA = SmCA (Schistosoma mansoni, UniProt A0A3Q0KSG2); test: biochemical; settings: stopped flow CO2 hydrase assay; mean from three different assays; read-out: Ki SmCA
Method: as §2

TcCA = TcCA (Trypanosoma cruzi, UniProt Q4DKE0); type: biochemical; settings: stopped flow CO2 hydrase assay; mean from three different assays
Method: as §2

[1] = tested on: newly transformed schistosomula (NTS); test: In vitro antischistosomal activity against newly transformed schistosomula (NTS); type: cell-based, Schistosoma mansoni; settings: 10 μM, after 72 h of exposure, viability via microscopy
Method: In vitro studies were carried out in accordance with Swiss national and cantonal regulations on animal welfare under the permission number 2070. The drug sensitivity assays with S. mansoni (adult and newly transformed schistosomules (NTS)) were carried out as described recently. Briefly, to obtain NTS, cercariae were collected from infected Biomphalaria glabrata snails and were mechanically transformed. Adult S. mansoni worms were collected by dissecting the mesenteric veins of infected mice at day 49 postinfection. Approximately 30–40 NTS were incubated with the respective test drug in 250 µL of M199 medium (Gibco, Waltham, MA) supplemented with 5% (v/v) foetal calf serum (FCS) (Bioconcept AG, Switzerland), 1% (v/v) penicillin/streptomycin solution (Sigma–Aldrich, Switzerland) and 1% (v/v) antibacterial/antifungal solution for up to 72 h at 37 °C and 5% CO2. The drug was tested at 10 µM in triplicate and repeated once. Three adult S. mansoni were incubated in a final volume of 2 mL rpmI 1640 supplemented with 5% (v/v) FCS and 1% (v/v) penicillin/streptomycin at 37 °C and 5% CO2 for 72 h at 10 µM. The experiment was conducted in duplicate. Worms were judged via microscopic readout 72 h after incubation; they were scored according to phenotypic reference points such as motility, morphology and granularity (scores from 0 to 3).

Chain of TcCA (Q4DKE0 entry or part of it): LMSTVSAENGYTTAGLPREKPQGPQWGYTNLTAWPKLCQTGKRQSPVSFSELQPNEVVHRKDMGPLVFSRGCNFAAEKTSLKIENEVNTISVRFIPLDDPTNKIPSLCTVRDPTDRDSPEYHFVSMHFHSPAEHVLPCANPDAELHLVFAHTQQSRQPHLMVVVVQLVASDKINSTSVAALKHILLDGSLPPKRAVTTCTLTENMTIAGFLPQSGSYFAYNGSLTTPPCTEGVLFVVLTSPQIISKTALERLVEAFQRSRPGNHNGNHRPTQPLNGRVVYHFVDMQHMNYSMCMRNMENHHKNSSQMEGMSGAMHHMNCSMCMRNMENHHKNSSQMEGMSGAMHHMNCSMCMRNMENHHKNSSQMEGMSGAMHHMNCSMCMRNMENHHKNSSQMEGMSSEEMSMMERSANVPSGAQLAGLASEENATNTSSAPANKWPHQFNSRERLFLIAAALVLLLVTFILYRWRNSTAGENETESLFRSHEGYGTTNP
T3 sequence (P22748 19-312): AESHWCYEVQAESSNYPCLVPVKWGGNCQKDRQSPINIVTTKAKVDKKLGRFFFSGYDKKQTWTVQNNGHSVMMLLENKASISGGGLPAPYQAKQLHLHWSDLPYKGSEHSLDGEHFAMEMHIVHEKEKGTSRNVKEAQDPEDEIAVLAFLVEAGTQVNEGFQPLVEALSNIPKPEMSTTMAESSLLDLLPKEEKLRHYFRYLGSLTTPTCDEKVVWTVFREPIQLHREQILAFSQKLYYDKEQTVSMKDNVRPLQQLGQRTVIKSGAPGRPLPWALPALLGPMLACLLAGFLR
Chain of LdCA (A0A3S5H5R2 entry or part of it): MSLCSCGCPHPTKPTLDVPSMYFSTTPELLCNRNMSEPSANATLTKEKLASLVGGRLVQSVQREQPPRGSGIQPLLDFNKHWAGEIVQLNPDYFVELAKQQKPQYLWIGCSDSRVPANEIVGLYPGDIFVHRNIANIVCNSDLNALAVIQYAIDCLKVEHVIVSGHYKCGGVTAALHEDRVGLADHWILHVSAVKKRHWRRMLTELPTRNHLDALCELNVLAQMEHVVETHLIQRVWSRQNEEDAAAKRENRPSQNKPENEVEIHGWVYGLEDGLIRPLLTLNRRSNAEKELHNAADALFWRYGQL
T1 sequence (P00915 whole entry): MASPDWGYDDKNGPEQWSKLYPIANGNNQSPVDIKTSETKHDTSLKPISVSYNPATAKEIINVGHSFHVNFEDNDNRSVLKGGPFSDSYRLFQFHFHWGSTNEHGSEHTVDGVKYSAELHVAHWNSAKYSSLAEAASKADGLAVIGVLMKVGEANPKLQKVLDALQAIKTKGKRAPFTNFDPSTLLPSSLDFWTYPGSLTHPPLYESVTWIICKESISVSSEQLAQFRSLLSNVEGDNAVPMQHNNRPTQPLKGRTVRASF
Chain of SmCA (A0A3Q0KSG2 entry or part of it): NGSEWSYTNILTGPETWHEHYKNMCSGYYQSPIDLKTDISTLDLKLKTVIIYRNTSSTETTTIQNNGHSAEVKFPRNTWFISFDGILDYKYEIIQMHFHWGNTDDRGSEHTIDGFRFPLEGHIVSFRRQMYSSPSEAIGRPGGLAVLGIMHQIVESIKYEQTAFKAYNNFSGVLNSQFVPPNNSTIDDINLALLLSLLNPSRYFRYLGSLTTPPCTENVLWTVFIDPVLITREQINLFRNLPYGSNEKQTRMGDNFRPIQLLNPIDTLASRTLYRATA

NS(=O)(=O)c1cccc(NC(=S)N2CC(=O)N3CCc4ccccc4C3C2)c1 (stereo not shown) [Compound 35b, 4-Oxo-N-(3-sulfamoylphenyl)-1,3,4,6,7,11b-hexahydro-2H-pyrazino[2,1-a]isoquinoline-2-carbothioamide]
Ki (hCA I): 86.5 ± 9 nM | Ki (hCA II): 8 ± 0.8 nM | Ki (hCA IV): 47.9 ± 4.1 nM | Ki (hCA IX): 83.3 ± 7.3 nM | Ki (LdCA): 237 ± 12.5 nM | Ki (SmCA): 6150 ± 612 nM

NS(=O)(=O)c1ccc(CCNC(=S)N2CC(=O)N3CCc4ccccc4C3C2)cc1 (stereo not shown) [Compound 35c, 4-Oxo-N-(4-sulfamoylphenethyl)-1,3,4,6,7,11b-hexahydro-2H-pyrazino[2,1-a]isoquinoline-2-carbothioamide]
Ki (hCA I): 64 ± 5.4 nM | Ki (hCA II): 7.6 ± 0.4 nM | Ki (hCA IV): 8270 ± 719 nM | Ki (hCA IX): 97.1 ± 7.9 nM | Ki (LdCA): 485 ± 46 nM | Ki (SmCA): 5 ± 0.5 nM

3–(3-(3–(4-Oxo-1,3,4,6,7,11b-hexahydro-2H-pyrazino[2,1-a]isoquinoline-2-carbonyl) phenyl)ureido)benzenesulfonamide [Compound 31b]
Ki (hCA IV): 451 ± 24.3 nM | Ki (hCA IX): 31.2 ± 1.6 nM | Ki (LdCA): 323 ± 16.7 nM | Ki (SmCA): 2490 ± 144 nM | Ki (TcCA): 309 ± 33.4 nM

NS(=O)(=O)c1ccc(CCNC(=O)Nc2ccc(C(=O)N3CC(=O)N4CCc5ccccc5C4C3)cn2)cc1 (stereo not shown) [Compound 33, 4–(2-(3–(5-(4-Oxo-1,3,4,6,7,11b-hexahydro-2H-pyrazino[2,1-a]isoquinoline-2-carbonyl)pyridin-2-yl)ureido)ethyl)benzenesulfonamide]
Ki (hCA I): 128 ± 11.9 nM | Ki (hCA II): 49.2 ± 3.5 nM | Ki (hCA IV): 6810 ± 379 nM | Ki (hCA IX): 90.9 ± 9.6 nM | Ki (LdCA): 87.5 ± 4.9 nM | Ki (SmCA): 581 ± 32.5 nM

NS(=O)(=O)c1ccc(CCNC(=O)N2CC(=O)N3CCc4ccccc4C3C2)cc1 (stereo not shown) [Compound 34c, 4-Oxo-N-(4-sulfamoylphenethyl)-1,3,4,6,7,11b-hexahydro-2H-pyrazino[2,1-a]isoquinoline-2-carboxamide]
Ki (hCA I): 20.5 ± 2 nM | Ki (hCA II): 5.8 ± 0.3 nM | Ki (hCA IV): 4180 ± 442 nM | Ki (hCA IX): 102 ± 5.9 nM | Ki (LdCA): 362 ± 27.3 nM | Ki (SmCA): 5.6 ± 0.5 nM | activity against NTS [1]: over 30%

4–(3-(4–(4-Oxo-1,3,4,6,7,11b-hexahydro-2H-pyrazino[2,1-a]isoquinoline-2-carbonyl) phenyl)ureido)benzenesulfonamide [Compound 31c]
Ki (hCA IV): 8700 ± 559 nM | Ki (hCA IX): 31.1 ± 2.9 nM | Ki (LdCA): 401 ± 20.7 nM | Ki (SmCA): 62.8 ± 4 nM | Ki (TcCA): 589 ± 37 nM

NS(=O)(=O)c1ccc(C(=O)Nc2nc(CC(=O)N3CC(=O)N4CCc5ccccc5C4C3)cs2)cc1 (stereo not shown) [Compound 30, N-(4–(2-oxo-2–(4-oxo-1,3,4,6,7,11b-hexahydro-2H-pyrazino[2,1-a]isoquinolin-2-yl)ethyl)thiazol-2-yl)-4-sulfamoylbenzamide]
Ki (hCA I): 58.6 ± 6.2 nM | Ki (hCA II): 8.5 ± 0.5 nM | Ki (hCA IV): 422 ± 26.6 nM | Ki (hCA IX): 119 ± 12.4 nM | Ki (LdCA): 81.3 ± 6.4 nM | Ki (SmCA): 7.8 ± 0.6 nM

O=C(C1CCCCC1)N1CC(=O)N2CCc3ccccc3C2C1 (stereo not shown) [PZQ, Praziquantel]
Ki (hCA I): > 10000 nM | Ki (hCA II): > 10000 nM | Ki (hCA IV): > 10000 nM | Ki (hCA IX): > 10000 nM | Ki (LdCA): > 10000 nM | Ki (SmCA): > 10000 nM

4–(3-(3–(4-Oxo-1,3,4,6,7,11b-hexahydro-2H-pyrazino[2,1-a]isoquinoline-2-carbonyl) phenyl)ureido)benzenesulfonamide [Compound 31a]
Ki (hCA IV): 180 ± 19.5 nM | Ki (hCA IX): 280 ± 15.4 nM | Ki (LdCA): 248 ± 15.9 nM | Ki (SmCA): 8.8 ± 0.8 nM | Ki (TcCA): 1650 ± 129 nM
